Read-outs that look alike come from different tables or passages of the source.
Assays:
rats = conditions: rat, in vivo
[1] = Elimination after administration per os; format: in vivo; conditions: administered per os
Mouse splenic monocytes = experiment: Osteoclast resorption (pit formation) on Corning osteo-assay surface plates; format: cell-based; conditions: 1 ng/ml RANKL, 2 ng/ml TNFα, 50 ng/ml m-CSF; 7, 14 or 21 days; 100 nM ELP-004
Method: Mouse splenic monocytes were induced to differentiate by the addition of 1 ng/ml RANKL, 2 ng/ml TNFα and 50 ng/ml m-CSF. The panels of FIG. 6 show a representative photomicrograph of cells after 7, 14, or 21 days of culture on Corning osteo-assay surface plates with RANKL+mCSF+TNFα or with the addition of 100 nM ELP-004.

Jurkat cells = format: cell-based; set-up: dose or concentration left out as unconfirmed; conditions: human
Method: ELP-004 (N-MeDCPA) was specifically developed to preclude metabolizing to two toxic metabolites, N—OH-dichloroaniline and 6-OH-dichloroaniline. In vitro assays for toxicity caused by ELP-004 using Jurkat cells show 50% toxicity at […] and <2% toxicity at […]. […] Thus, ELP-004 has high potential for use as a drug to prevent or reduce bone erosion.

TRPC4 = molecular target: T1, TRPC4 (Homo sapiens, UniProt Q9UBN4); experiment: FIG. 4 TRPC4 overexpressing cells, fura, OAG in the presence of Ca2+; format: cell-based; conditions: TRPC4 O/E cells, Ca2+ present, N=4
T1 construct: expressed in transfected cells; host or cells: HEK293 (transient transfection)
T1 sequence (Q9UBN4 1-977): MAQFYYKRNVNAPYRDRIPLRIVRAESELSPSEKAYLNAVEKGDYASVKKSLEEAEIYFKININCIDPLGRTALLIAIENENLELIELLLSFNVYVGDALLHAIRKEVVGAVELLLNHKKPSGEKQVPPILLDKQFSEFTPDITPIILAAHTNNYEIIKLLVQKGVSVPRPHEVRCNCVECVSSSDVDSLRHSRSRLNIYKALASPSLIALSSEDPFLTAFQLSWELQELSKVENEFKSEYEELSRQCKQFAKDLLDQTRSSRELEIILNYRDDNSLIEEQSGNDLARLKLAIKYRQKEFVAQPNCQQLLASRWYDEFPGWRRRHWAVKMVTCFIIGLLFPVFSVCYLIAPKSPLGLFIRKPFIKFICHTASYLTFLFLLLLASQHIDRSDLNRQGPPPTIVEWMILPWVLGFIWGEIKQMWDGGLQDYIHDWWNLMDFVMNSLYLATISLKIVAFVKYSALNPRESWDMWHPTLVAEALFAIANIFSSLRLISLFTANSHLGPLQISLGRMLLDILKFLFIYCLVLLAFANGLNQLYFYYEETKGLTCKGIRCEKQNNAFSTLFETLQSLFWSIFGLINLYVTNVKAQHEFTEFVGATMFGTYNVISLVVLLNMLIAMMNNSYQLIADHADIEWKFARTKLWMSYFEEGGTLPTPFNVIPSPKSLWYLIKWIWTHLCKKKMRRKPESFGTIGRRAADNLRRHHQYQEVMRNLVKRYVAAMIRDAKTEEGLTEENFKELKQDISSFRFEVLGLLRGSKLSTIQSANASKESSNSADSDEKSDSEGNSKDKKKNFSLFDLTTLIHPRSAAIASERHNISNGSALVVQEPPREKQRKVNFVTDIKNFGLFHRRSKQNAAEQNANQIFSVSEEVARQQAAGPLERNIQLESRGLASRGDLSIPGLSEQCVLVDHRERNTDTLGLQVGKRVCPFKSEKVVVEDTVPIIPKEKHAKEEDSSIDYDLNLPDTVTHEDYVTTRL
Description: The assay was done in the presence of Ca^2+. OAG (1-Oleoyl-2-acetyl-sn-glycerol) is a cell permeable DAG analog and directly activates these TRPC channels (i.e. TRPC4 and TRPC5).

## CCC(=O)N(C)c1ccc(Cl)c(Cl)c1 [ELP-004, N-(3,4-dichlorophenyl)-N-methylpropanamide]
rats
  oral LD50: > 2.5 g/kg body weight
[1]
  time until essentially eliminated: ≤ 4 h
Mouse splenic monocytes
  pit formation (osteoclast resorption): inhibited pit formation
Jurkat cells; 200
  toxicity: < 2%
Jurkat cells; 800
  toxicity: 50%
TRPC4
  IC50: 172 nM

— US20240058283A1, “THE MODE OF ACTION OF N-MeDCPA ON TRPC CHANNELS” (West Virginia University Board of Governors on Behalf of …, priority 2022, published 2024)
